The values that follow come from the NIST ThermoML archive (doi:10.1016/j.jct.2009.09.006).

Series [1] in a line: Molar enthalpy of transition or fusion. The conditions noted are these: Crystal; DSC.
The conditions of series [2]: Crystal; DTA.

Numbers after ± are expanded uncertainties.

With `CCCCn1cc[n+](C)c1.Cc1ccc(S(=O)(=O)[O-])cc1` [1-butyl-3-methylimidazolium tosylate], the “Molar enthalpy of transition or fusion” value in series [1] stood at 3.91 ± 0.108 kcal/mol. In addition, the Normal melting temperature in series [2] came out at 57.01 ± 0.39 °C.
